Activity calls are given as the source filed them. No cut-off for these calls is given here.
Species: Homo sapiens
Test: Inhibition of 2,6-dimethylpyrazine-induced odor assessed as strength of odor on cloth smelled by subjects
Type: functional, organism-based

Row | Structure (SMILES) | inhibition
1 | CC1C/C=C/CCCCCCCCCC(=O)C1 (configuration not stated) | Active
2 | CC(C=O)Cc1ccc2c(c1)OCO2 (configuration not stated) | Active
3 | C=CCCC(=O)C1=CCCC(C)(C)C1 | Active
4 | CC(=O)/C(C)=C/C1C(C)=CCCC1(C)C (configuration not stated) | Active
5 | CCCCCCCC1CCC(=O)O1 (configuration not stated) | Active
6 | CC/C=C(\C)C(O)CCCCC (configuration not stated) | Active
7 | CC(=O)/C=C/C1=C(C)CCCC1(C)C | Active
8 | CC(C=O)Cc1ccc(C(C)(C)C)cc1 (configuration not stated) | Active
9 | CC(=O)c1ccc2ccccc2c1 | Active
10 | CCC(O)COC1CCCCC1C(C)(C)C (configuration not stated) | Active
11 | CC1=CC(C)C(C=O)CC1 (configuration not stated) | Active
12 | CC(C)=CCC/C(C)=C/CO | Active
13 | CC1=CCC(C/C=C(\C)CO)C1(C)C (configuration not stated) | Active
14 | C/C=C/C(=O)C1=C(C)C=CCC1(C)C | Active

These compounds were tested against T1, Olfactory receptor 5K1 (Homo sapiens) (UniProt Q8NHB7) (assay: Antagonist activity at human OR5K1 expressed in HEK293 cells assessed as inhibition of 2,6-dimethylpyrazine-induced response at 100 uM by luciferase reporter gene assay).
T1 sequence (whole entry): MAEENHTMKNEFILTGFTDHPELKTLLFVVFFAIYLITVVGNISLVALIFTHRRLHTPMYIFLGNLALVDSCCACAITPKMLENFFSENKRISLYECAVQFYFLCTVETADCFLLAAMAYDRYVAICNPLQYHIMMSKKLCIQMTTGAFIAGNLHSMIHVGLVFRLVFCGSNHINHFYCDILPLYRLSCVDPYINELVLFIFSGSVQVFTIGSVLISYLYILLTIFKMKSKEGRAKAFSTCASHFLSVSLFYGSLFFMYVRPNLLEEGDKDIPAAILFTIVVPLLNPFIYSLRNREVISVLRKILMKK
Type: functional, cell-based

Row | Structure (SMILES) | inhibition
15 | CC1=CC(C)C(C)C(C=O)C1 (configuration not stated) | > 40%
16 | CC1C/C=C/CCCCCCCCCC(=O)C1 (configuration not stated) | > 50%
17 | CC(C=O)Cc1ccc2c(c1)OCO2 (configuration not stated) | > 40%
18 | C=CCCC(=O)C1=CCCC(C)(C)C1 | > 40%
19 | CC(=O)/C(C)=C/C1C(C)=CCCC1(C)C (configuration not stated) | > 50%
20 | CCCCCCCC1CCC(=O)O1 (configuration not stated) | > 50%
21 | CC(C)[C@@H]1CC[C@@H](C)C[C@H]1O | > 50%
22 | CC(C)[C@H]1CC[C@@H](CO)CC1 | > 40%
23 | CC(=O)C1=C(C)[C@@H]2C[C@@]3(C1)[C@H](C)CC[C@H]3C2(C)C | > 50%
24 | CC(=O)O[C@]1(C)CC[C@H]2C(C)(C)[C@@H]3C[C@@]21CC[C@H]3C | > 50%
25 | O=C1CCCCCCCCCCCCCCO1 | > 40%
26 | CCCCCCOC(=O)c1ccccc1O | > 40%
27 | O=C1CCCCC/C=C\CCCCCCCCO1 | > 50%
28 | OCCCCCCc1ccccc1 | > 40%
29 | CC/C=C(\C)C(O)CCCCC (configuration not stated) | > 75%
30 | CC(=O)/C=C/C1=C(C)CCCC1(C)C | > 75%
31 | CC(C=O)Cc1ccc(C(C)(C)C)cc1 (configuration not stated) | > 50%
32 | C[C@@H]1CCCCCCCCCCCCC(=O)C1 | > 50%
33 | O=C/C=C/c1ccccc1 | > 50%
34 | CC(C)=CCCC(C)CCOCC=O (configuration not stated) | > 40%
35 | CCCCCC/C(C=O)=C\c1ccccc1 | > 50%
36 | CC(C=O)c1ccccc1 (configuration not stated) | > 50%
37 | CCCCCC1=C(C)CCC1=O | > 40%
38 | CC(C)=CCCC(C)CC=O (configuration not stated) | > 50%
39 | CC(=O)C1(C)CC2=C(CCCC2(C)C)CC1C (configuration not stated) | > 75%
40 | CC(=O)c1cc(C(C)(C)C)cc2c1CCC2(C)C | > 40%
41 | C[C@@H]1[C@@H]2C(=O)C[C@H]3[C@@H]2C(C)(C)CCC[C@]13C | > 75%

Row | Structure (SMILES) | inhibition
42 | CC/C(=C\CC1CC=C(C)C1(C)C)CO (configuration not stated) | > 75%
43 | C/C=C/c1ccc(OCc2ccccc2)c(OC)c1 | > 50%
44 | CO[C@]1(C)CC[C@H]2C(C)(C)[C@@H]3C[C@@]21CC[C@H]3C | > 50%
45 | CC1=CC(O)CC(C)C2CC(=C(C)C)CC12 (configuration not stated) | > 75%
46 | CC12CCC(C3(CCCC3)C1=O)C2(C)C (configuration not stated) | > 50%
47 | O=C(OCCc1ccccc1)c1ccccc1O | > 75%
48 | CC(C)CCCC(C)CCO (configuration not stated) | > 50%
49 | O=C1CCCCCCCCCCCC(=O)OCCO1 | > 40%
50 | CC(=O)c1ccc2ccccc2c1 | > 50%
51 | CCC(O)COC1CCCCC1C(C)(C)C (configuration not stated) | > 75%
52 | CC(C=O)Cc1ccc(C(C)C)cc1 (configuration not stated) | > 75%
53 | C=CCc1ccc(O)c(OC)c1 | > 40%
54 | CC1=CC(C)C(C=O)CC1 (configuration not stated) | > 40%
55 | CC(C)=CCC/C(C)=C/CO | > 40%
56 | CC(C=O)C1CCCCC1 (configuration not stated) | > 50%
57 | CC(=O)c1c(C)c([N+](=O)[O-])c(C(C)(C)C)c([N+](=O)[O-])c1C | > 40%
58 | CC1=CCC(C/C=C(\C)CO)C1(C)C (configuration not stated) | > 50%
59 | CC1(C)CCCC2(C)C1CCC1(C)OCCC12 (configuration not stated) | > 50%
60 | Cc1ccc(C(C)C)c(O)c1 | > 75%
61 | CC(C)=CCC/C(C)=C/C=O | > 75%
62 | CC1=CCC(C(C)CC2CCCC2=O)CC1 (configuration not stated) | > 50%
63 | CC(=O)c1cc2c(cc1C)C(C)(C)C(C)CC2(C)C (configuration not stated) | > 75%
64 | CCCCC/C(C=O)=C\c1ccccc1 | > 75%
65 | C/C=C/C(=O)C1=C(C)C=CCC1(C)C | > 40%
66 | C=C(OCC)C1C(C)(C)CC(=O)CC1(C)C | > 50%
67 | CCOCOC1CCCCCCCCCCC1 | > 50%

From ChEMBL document CHEMBL3727343, “Agent for inhibiting odor of pyrazine derivatives” (2013)
